Assay results: BigSolDB 2.1

Cc1ccc(S(C)(=O)=O)cc1
solubility (mole fraction)
Details | in DMF | in acetone | in acetonitrile | in ethanol | in ethyl acetate | in isopropanol | in methanol | in n-butanol | in n-propanol
278.15 K | 0.123 | 0.0999 | 0.084 | 0.00721 | 0.0611 | 0.00415 | 0.0111 | 0.00408 | 0.00596
283.15 K | 0.146 | 0.118 | 0.102 | 0.00993 | 0.0732 | 0.00579 | 0.0153 | 0.00599 | 0.00839
288.15 K | 0.177 | 0.144 | 0.13 | 0.0137 | 0.0872 | 0.008 | 0.0207 | 0.00869 | 0.012
293.15 K | 0.208 | 0.172 | 0.155 | 0.018 | 0.103 | 0.011 | 0.0282 | 0.0125 | 0.016
298.15 K | 0.244 | 0.199 | 0.183 | 0.0241 | 0.123 | 0.0149 | 0.0376 | 0.0178 | 0.022
303.15 K | 0.282 | 0.234 | 0.218 | 0.0321 | 0.144 | 0.0203 | 0.05 | 0.0252 | 0.03
308.15 K | 0.332 | 0.274 | 0.258 | 0.042 | 0.171 | 0.0275 | 0.0657 | 0.0353 | 0.04
313.15 K | 0.389 | 0.322 | 0.3 | 0.055 | 0.203 | 0.0367 | 0.0858 | 0.0492 | 0.052
318.15 K | 0.45 | 0.379 | 0.359 | 0.0712 | 0.236 | 0.0491 | 0.111 | 0.0681 | 0.069
